Laboratory results taken from patent publication US7932031B2, “Methods for determining sensitivity to microtubule-stabilizing agents comprising ixabepilone by measuring the level of estrogen receptor 1” (Bristol-Myers Squibb Company, priority 2004, dated 2011).

Tested on: invasive stage IIA-IIIB breast adenocarcinoma
Assay: CA163-080 exploratory genomic phase II study, ixabepilone as neoadjuvant treatment, pathologic complete response (Sataloff classification)
Type: in vivo, human
Conditions: breast cancer patients, 40 mg/m^2 3-hour infusion on Day 1, up to four 21-day cycles
Experimental: CA163-080 is an exploratory genomic phase II study that was conducted in breast cancer patients who received ixabepilone as a neoadjuvant treatment. The primary objective of this study was to identify predictive markers of response to ixabepilone through gene expression profiling of pre-treatment breast cancer biopsies. Patients with invasive stage IIA-IIIB breast adenocarcinoma (tumor size≧3 cm diameter) received 40 mg/m^2 ixabepilone as a 3-hour infusion on Day 1 for up to four 21-day cycles, followed by surgery within 3-4 weeks of completion of chemotherapy. A total of 164 patients were enrolled in this study. Biopsies for gene expression analysis were obtained both pre- and post-treatment. […]
Pathological response was assessed using the Sataloff classification system (D. Sataloff et al., J. Am. Coll. Surg., 180(3):297-306 (1995)) and used as an end point for the pharmacogenomic analysis. The pathologic response was evaluated in the primary tumor site at the end of treatment and prior to surgery by assessing histologic changes compared with baseline as following: At the primary tumor site, cellular modifications were evaluated in both the infiltrating tumoral component and in the possible ductal component, to determine viable residual infiltrating component (% of total tumoral mass); residual ductal component (% of total tumoral mass); the mitotic index. […]

Question: What does the source list for `C/C(=C\c1csc(C)n1)[C@@H]1C[C@@H]2O[C@]2(C)CCC[C@H](C)[C@H](O)[C@@H](C)C(=O)C(C)(C)[C@@H](O)CC(=O)N1` [ixabepilone]?
Answer: pCR response rate (the other sites (excluding Russian sites 16, 24 and 25)): 19.8%; pCR response rate (tumors from the three Russian sites (16, 24 and 25)): 17.2%
